Data reported in BindingDB's records for doi:10.1016/j.bmcl.2011.12.068 (Janssen Pharmaceutica, 2012).

Tests used:
[1] = target: Transient receptor potential cation channel subfamily A member 1 (Homo sapiens, UniProt O75762); assay: Antagonist activity at human TRPA1 expressed in HEK293 cells assessed as inhibition of 5H-dibenzo[b,e]azepine-10-carboxylic acid methyl ester-induced increase in intracellular calcium by Fluo4-AM based fluorometric assay
[2] = target: Transient receptor potential cation channel subfamily A member 1 (Rattus norvegicus, UniProt Q6RI86); assay: Antagonist activity at rat TRPA1 expressed in HEK293 cells assessed as inhibition of BITC-induced increase in intracellular calcium concentration by Fluo4-AM based fluorometric assay
Transient receptor potential cation channel subfamily A member 1 (Rattus norvegicus, UniProt Q6RI86), sequence (Q6RI86 whole entry E27K): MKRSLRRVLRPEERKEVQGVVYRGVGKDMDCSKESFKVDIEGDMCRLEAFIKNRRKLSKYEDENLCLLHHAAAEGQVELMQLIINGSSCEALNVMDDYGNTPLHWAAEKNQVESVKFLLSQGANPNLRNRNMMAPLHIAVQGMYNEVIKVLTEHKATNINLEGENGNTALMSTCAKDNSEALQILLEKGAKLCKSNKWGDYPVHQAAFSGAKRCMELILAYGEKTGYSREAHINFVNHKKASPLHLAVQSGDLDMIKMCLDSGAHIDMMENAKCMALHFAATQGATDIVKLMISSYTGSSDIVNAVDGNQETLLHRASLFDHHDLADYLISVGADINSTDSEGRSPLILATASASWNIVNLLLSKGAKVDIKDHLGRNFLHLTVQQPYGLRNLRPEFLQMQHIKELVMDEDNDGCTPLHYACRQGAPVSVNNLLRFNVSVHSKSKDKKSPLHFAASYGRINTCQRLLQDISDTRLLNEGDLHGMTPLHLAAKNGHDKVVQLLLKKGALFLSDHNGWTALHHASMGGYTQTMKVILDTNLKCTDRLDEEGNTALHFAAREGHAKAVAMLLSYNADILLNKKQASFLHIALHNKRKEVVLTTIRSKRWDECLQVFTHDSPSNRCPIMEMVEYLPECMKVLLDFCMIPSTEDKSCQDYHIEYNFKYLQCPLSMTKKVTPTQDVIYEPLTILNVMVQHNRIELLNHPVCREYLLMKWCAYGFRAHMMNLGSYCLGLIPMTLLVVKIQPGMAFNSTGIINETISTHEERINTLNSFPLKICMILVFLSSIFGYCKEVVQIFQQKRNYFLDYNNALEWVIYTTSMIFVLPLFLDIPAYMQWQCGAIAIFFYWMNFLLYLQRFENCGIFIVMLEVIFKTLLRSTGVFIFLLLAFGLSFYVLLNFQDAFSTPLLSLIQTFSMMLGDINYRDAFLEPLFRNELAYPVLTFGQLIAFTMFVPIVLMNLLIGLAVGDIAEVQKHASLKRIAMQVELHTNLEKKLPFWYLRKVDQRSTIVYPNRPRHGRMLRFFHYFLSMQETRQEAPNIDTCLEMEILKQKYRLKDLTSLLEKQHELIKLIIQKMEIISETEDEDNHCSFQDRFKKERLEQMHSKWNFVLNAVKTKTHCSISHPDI

Transient receptor potential cation channel subfamily A member 1 (Homo sapiens, UniProt O75762), sequence (O75762 whole entry): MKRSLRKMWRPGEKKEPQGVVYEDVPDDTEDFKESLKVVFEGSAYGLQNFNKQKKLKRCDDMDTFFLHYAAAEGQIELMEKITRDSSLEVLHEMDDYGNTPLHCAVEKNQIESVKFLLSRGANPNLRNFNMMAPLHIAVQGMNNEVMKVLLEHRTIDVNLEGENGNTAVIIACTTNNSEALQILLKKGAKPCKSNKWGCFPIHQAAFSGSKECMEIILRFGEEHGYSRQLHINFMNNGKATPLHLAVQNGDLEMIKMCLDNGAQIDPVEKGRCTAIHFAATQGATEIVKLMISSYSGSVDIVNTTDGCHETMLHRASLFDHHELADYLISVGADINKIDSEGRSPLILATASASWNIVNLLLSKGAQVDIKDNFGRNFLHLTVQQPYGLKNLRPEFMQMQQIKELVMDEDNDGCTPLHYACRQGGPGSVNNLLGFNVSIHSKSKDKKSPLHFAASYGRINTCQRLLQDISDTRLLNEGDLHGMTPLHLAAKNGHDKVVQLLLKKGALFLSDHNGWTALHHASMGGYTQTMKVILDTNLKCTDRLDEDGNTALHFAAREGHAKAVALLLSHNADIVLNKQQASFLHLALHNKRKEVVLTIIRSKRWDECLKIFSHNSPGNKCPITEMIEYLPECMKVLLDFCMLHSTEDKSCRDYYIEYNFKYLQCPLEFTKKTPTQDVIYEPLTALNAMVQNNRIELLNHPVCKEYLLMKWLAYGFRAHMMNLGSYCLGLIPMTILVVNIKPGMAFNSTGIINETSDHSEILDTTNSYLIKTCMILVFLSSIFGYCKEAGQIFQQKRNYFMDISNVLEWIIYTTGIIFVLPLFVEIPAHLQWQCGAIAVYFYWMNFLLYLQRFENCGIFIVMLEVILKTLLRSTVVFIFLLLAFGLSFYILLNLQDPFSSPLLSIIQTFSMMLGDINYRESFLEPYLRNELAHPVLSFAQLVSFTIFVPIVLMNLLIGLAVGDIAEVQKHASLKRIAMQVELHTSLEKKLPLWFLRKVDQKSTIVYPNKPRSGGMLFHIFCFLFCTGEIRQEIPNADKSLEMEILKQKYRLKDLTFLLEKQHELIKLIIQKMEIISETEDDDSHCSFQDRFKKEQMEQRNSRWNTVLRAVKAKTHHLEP

| IC50 [1] [µM] | IC50 [2] [µM] | SMILES |
| --- | --- | --- |
| > 10 | > 10 | O=C(O)c1cccc(C2NC(=S)N=C3c4ccccc4C(=O)C32)c1 (stereo not given) |
| > 10 | > 10 | O=C1N=C2c3ccccc3C(=O)C2C(c2ccccc2)N1 (stereo not given) |
| > 10 |  | S=C1N=C2C(=Cc3ccccc3)CCCC2C(c2ccccc2)N1 (stereo not given) |
| > 10 | > 10 | COc1ccc(OC)c(C2NC(=S)N=C3c4ccccc4C(=O)C32)c1 (stereo not given) |
| > 10 |  | O=C1CCCC2=NC(=S)NC(c3ccccc3)C12 (stereo not given) |
| > 10 |  | S=C1N=C2CCCC2C(c2ccccc2)N1 (stereo not given) |
| > 10 |  | S=C1N=C2CCCCC2C(c2ccccc2)N1 (stereo not given) |
| > 10 |  | S=C1N=C(c2ccccc2)CC(c2ccccc2)N1 (stereo not given) |
| > 10 | > 10 | CN(C)CCCOc1cccc(C2NC(=S)N=C3c4ccccc4C(=O)C32)c1 (stereo not given) |
| > 10 |  | CC1=NC(=S)NC(c2ccccc2)C1C(=O)c1ccccc1 (stereo not given) |
| > 10 |  | S=C1N=C2c3ccccc3CCC2C(c2ccccc2)N1 (stereo not given) |
